The source of these data is patent publication US20230087994A1, “TARGETED BIFUNCTIONAL DEGRADERS” (YALE UNIVERSITY, priority 2019, published 2023).

In data set [1] the test system is PC3 cells. The experiment in a line: Human prostate cancer PC3 tumor growth in mice. It is filed as in vivo. To be noted: control and comparator arms; FIG. 138. Here is the method:
The ability of MIF-GN3 to mediate the depletion of MIF in a therapeutically relevant disease model was investigated. […] An experiment was conducted to determine whether the bifunctional molecule MIF-GN3 can deplete sufficient human MIF from serum to slow PC3 tumor growth. Mice were injected with an aliquot of PC3 cells, and the size of the resultant tumors as well as the levels of human MIF in serum were monitored over five weeks. […] Five weeks after the initial PC3 cell injection, the first of the mice reached maximal tumor size ([…]) and was sacrificed (FIG. 138). […] The decrease in human MIF levels mediated by MIF-GN3 is consistent with a mechanism of action in which MIF-GN3 mediates the depletion and degradation of circulating MIF protein. While the α-MIF antibody would not necessarily be expected to decrease the levels of human MIF, it is possible that the antibody mediates MIF neutralization in a manner which masks its signal as determined by ELISA. Alternatively, the α-MIF antibody may mediate depletion or degradation of huMIF by some endocytic mechanism. Another possible explanation is that the α-MIF antibody decrease serum levels of active human MIF to such an extent at early time points that PC3 cells proliferate much more slowly, and therefore fewer cells are actively secreting human MIF.
Mice were sacrificed when their tumor volumes reached 1000 mm^3. […] At this same time point, less than 25% of the mice in any other arm had survived.

For data set [2], the target named is T1, human MIF (Homo sapiens, UniProt P14174).
T1 sequence (P14174 2-115 limits assumed): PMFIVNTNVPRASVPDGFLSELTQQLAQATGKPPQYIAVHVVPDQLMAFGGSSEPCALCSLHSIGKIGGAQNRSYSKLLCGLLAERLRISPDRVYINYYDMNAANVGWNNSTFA
The experiment in a line: Depletion of human MIF from cell culture supernatant (sandwich ELISA). Also on record: host or cells: exogenous protein added to cell culture. Conditions: 24 hours; FIG. 128B. The data set is classed as cell-based. How it is done:
The ability of bifunctional MIF-binding molecules to mediate the depletion of human MIF from cell culture was investigated. In these assays, human MIF was present at a concentration of 100 nM, and a sandwich ELISA assay was utilized to measure the concentration of human MIF remaining in the cell culture supernatant. The closely related bifunctional molecules MIF-GN3, MIF-PEG2-GN3, and MIF-PEG4-GN3 were used, as well as the structurally dissimilar molecule MIF-NVS-PEG3-GN3. […] Based on the ease of its synthesis and its efficacy in this experiment, MIF-GN3 was utilized for further studies. It was next investigated whether the MIF inhibitor 3w mediates MIF depletion from cell culture supernatant. […] When cells were treated with 3w, no depletion of exogenous MIF protein was observed after 24 hours (FIG. 128B).

The target of data set [3] is T1, human MIF. The experiment in a line: Depletion of injected recombinant human MIF from serum in mice. The data set is classed as in vivo. On the set-up: injected into mice. Conditions: control molecules; FIG. 136. Here is the method: In vivo human MIF depletion experiments were undertaken to determine whether MIF-GN3 can mediate the depletion of injected recombinant human MIF from serum in mice. Mice were injected with five μg of the human MIF protein. In this experiment, one group of mice was also injected with a single 10 mpk dose of MIF-GN3 along with human MIF protein. It was observed that after four hours, the average level of human MIF in serum in the PBS-treated mice was 1.76 ng/mL (FIG. 134). In mice treated with 10 mpk MIF-GN3, however, the concentration of human MIF in serum was 0.68 ng/mL. One day after the initial injection, human MIF levels had reached background levels for both conditions. […] It was hypothesized that, due to the short half-life of human MIF in serum, investigating human MIF levels at earlier time points may be more informative.
Next, an experiment was performed to determine whether MIF-GN3 could enhance MIF clearance at time points earlier than four hours. Mice were coinjected with recombinant human MIF and 10 mpk MIF-GN3 via either i.p. or i.v. routes. For the PBS control arms, human MIF was injected with PBS. It was observed that in the absence of MIF-GN3, there was a spike in huMIF levels in circulation after 30 minutes (FIG. 135). In the presence of MIF-GN3, however, levels of MIF protein remained low at 30 minutes and no spike in its concentration was observed. By two hours, the levels of human MIF in circulation decreased to background levels. […] In a further experiment, whether an inhibitor of the MIF protein (3w) is able to mediate the protein's depletion from serum was determined. A bifunctional molecule that mediates the depletion of α-DNP antibody from serum was also assayed as a negative control. Neither of these molecules was expected to mediate the formation of a ternary complex between human MIF protein and ASGPR.
In order to confirm that mice injected with one or ten mpk MIF-GN3 had received the injection, and that the observed stability of MIF concentrations in MIF-GN3 treated mice was not the result of injection error, 200 μg of α-DNP antibody was coinjected with the MIF protein in this experiment. […] An investigation of the ability of MIF-GN3 to mediate the depletion of endogenous mouse MIF in vivo was next undertaken. Mice were treated with either PBS or 10 mpk of MIF-GN3. […] One possible explanation for this finding is that MIF protein may be synthesized rapidly, and any increase in degradation mediated by MIF-GN3 may not be of a large enough magnitude to impact the protein's level in serum.

Data set [4] concerns HepG2 cells. The experiment in a line: DNP-GN3-mediated endocytosis of fluorescently labeled α-DNP antibody by adherent HepG2 cells. It is filed as cell-based, human. To be noted: DNP-GN3-mediated uptake; FIG. 89. How it is done:
It was next explored whether DNP-GN3 mediates the endocytosis of fluorescently labeled α-DNP antibody.
To explore the cellular mechanism of antibody uptake, cells were treated with chemical inhibitors of several endocytic pathways (FIG. 89).

Data set [5] relates to HepG2 cells. Nature of the data set: DNP-AF3-mediated endocytosis of fluorescently labeled α-DNP antibody by HepG2 cells (flow cytometry). The data set is classed as cell-based, human. To be noted: 40 nM DNP-AF3, 100 nM antibody; FIG. 106. Here is the method: The intracellular fluorescence of cells that were incubated at 37° C. with both fluorescently labeled α-DNP antibody and DNP-AF3 for a given amount of time was examined. Cells were then washed, removed from the plate with trypsin, and subjected to flow cytometry. Trypsin treatment is expected to cleave ASGPR and surface-bound α-DNP antibody from cells, and therefore the cellular fluorescence observed in these assays is expected to arise only from internalized antibodies.
It was then determined if reagents which inhibit ternary complex formation inhibit endocytosis mediated by DNP-AF3. In order to account for non-specific antibody association with cells, the mean fluorescence intensity of an aliquot of cells which had been treated with α-DNP antibody but not DNP-AF3 was subtracted from each reading. […] In the presence of 2.38 μM (0.1 mg/mL) ASOR, the cell population fluorescence was decreased to 4.66e5 (FIG. 105); at this ASOR concentration, ternary complex formation is decreased by approximately 70%. Because ternary complex is not inhibited completely at this concentration of ASOR, it is expected that productive endocytic events are still taking place.

For data set [6], the system named is HepG2 cells. The experiment in a line: MIF-GN3-mediated endocytosis of fluorescently labeled human MIF by HepG2 cells. To be noted: for effect of endocytic pathway inhibitors on MIF-GN3-mediated MIF endocytosis: 100 nM MIF, 200 nM MIF-GN3, FIG. 132. How it is done:
Human MIF protein was fluorescently labeled with Alexa 488 NHS ester, then incubated with HepG2 cells in the presence of varying levels of MIF-GN3.
Next, inhibitors of various endocytic pathways were utilized to determine if MIF-GN3 mediates MIF endocytosis in a manner consistent with ASGPR (FIG. 132).

Data set [7] concerns the target human IgG (fluorescently labeled) (human). The experiment in a line: cell-based or functional assay.
The target of data set [8] is T2, asialoglycoprotein receptor (ASGPR) on the surface of immortalized human hepatocyte HepG2 cells (human) (UniProt P07306).
T2 sequence (looked up) 1: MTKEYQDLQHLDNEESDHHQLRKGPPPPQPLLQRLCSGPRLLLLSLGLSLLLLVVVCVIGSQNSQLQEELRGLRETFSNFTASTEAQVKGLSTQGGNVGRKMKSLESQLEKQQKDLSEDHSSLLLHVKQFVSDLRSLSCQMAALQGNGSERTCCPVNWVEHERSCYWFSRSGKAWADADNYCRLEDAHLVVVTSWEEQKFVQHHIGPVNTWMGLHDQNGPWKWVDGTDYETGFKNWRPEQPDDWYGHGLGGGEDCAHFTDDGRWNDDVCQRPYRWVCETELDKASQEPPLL
T2 sequence (looked up) 2: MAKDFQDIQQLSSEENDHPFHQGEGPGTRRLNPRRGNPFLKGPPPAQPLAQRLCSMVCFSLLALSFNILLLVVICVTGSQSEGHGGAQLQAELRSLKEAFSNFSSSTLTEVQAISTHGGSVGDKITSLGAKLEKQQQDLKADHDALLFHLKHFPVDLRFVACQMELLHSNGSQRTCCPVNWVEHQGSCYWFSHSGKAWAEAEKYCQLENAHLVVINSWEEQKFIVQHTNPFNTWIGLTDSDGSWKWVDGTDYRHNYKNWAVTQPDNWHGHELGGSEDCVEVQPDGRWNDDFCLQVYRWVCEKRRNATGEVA
Nature of the data set: competition, flow cytometry on HepG2 cells against 40 nM DNP-AF3 and 100 nM α-DNP antibody.

The target in data set [9] is T2, asialoglycoprotein receptor (ASGPR) on the surface of immortalized human hepatocyte HepG2 cells (human). The experiment in a line: cell-based or functional assay.
The target is the same in data set [10]. The experiment in a line: competition, flow cytometry: inhibition of DNP-GN3-mediated association of fluorescent α-DNP antibody with HepG2 cells in suspension (ASGPR on cells).

`Oc1ccc(-n2cc(-c3ccc4cc(OCCOCCN5CCOCC5)ccc4n3)nn2)cc1F` [Compound 3w, reference compound]: the PC3 tumor growth result in data set [1] is on record as “not found to decrease tumor growth”. Also, the “depletion of exogenous MIF protein from supernatant” value in [2] is recorded as “no depletion”. Moreover, the “human MIF concentration in serum compared to the PBS control” value in data set [3] is given as “no significant decreases”.
For `N=C(N)NC(=O)c1nc(Cl)c(N)nc1N` [amiloride, Amiloride], the “effect of endocytic pathway inhibitors on intracellular fluorescence” value in data set [4] is “did not significantly decrease”. Further, the “effect of endocytic pathway inhibitors on fluorescence of the cell population” value in [5] is listed as “A decrease in cellular fluorescence”. Further, in [6], the “effect of endocytic pathway inhibitors on MIF-GN3-mediated MIF endocytosis” value was “did not impact cellular fluorescence significantly”.
As for `C=C1[C@@H](C)[C@H]2[C@H](Cc3ccccc3)NC(=O)[C@]23[C@H](OC(C)=O)/C=C/[C@@](C)(O)C(=O)[C@@H](C)C/C=C/[C@H]3[C@@H]1O` [cytochalisin D (CytD)], the “effect of endocytic pathway inhibitors on fluorescence of the cell population” value in data set [5] is on record as “non-significant decrease”.
With `O=c1c(-c2ccc(O)cc2)coc2cc(O)cc(O)c12` [genistein, Genistein], the “effect of endocytic pathway inhibitors on fluorescence of the cell population” value in [5] was “did not significantly decrease”. Moreover, the toxicity to cells entry in data set [6] (HepG2 cells with MIF and MIF-GN3) is recorded as “toxic to cells”.
For the molecule `COc1ccc2c(c1)c(CC(=O)O)c(C)n2C(=O)c1ccc(Cl)cc1` [indomethacin, Indomethacin], the “effect of endocytic pathway inhibitors on fluorescence of the cell population” value in data set [5] is given as “did not significantly decrease”. Moreover, the “effect of endocytic pathway inhibitors on MIF-GN3-mediated MIF endocytosis” value in data set [6] is given as “did not decrease”.
`C[C@@H]1[C@H](O)[C@@H](C)/C=C/C=C/CC/C=C/C=C/C=C/C=C/C(O[C@H]2O[C@H](C)[C@@H](O)[C@H](N)[C@@H]2O)CC2O[C@](O)(CC(O)C(O)CCC(O)CC(O)CC(O)CC(=O)O[C@H]1C)CC(O)C2C(=O)O` (some centres unmarked) [nystatin, Nystatin]: the “effect of endocytic pathway inhibitors on intracellular fluorescence” value in [4] was “did not significantly decrease”. In [5], the “effect of endocytic pathway inhibitors on fluorescence of the cell population” value was “did not significantly decrease”. Besides, the “effect of endocytic pathway inhibitors on MIF-GN3-mediated MIF endocytosis” value in data set [6] is “did not decrease”.
Consider FcIII-BCN-GN3 (peptide), for which the endocytosis of human IgG by HepG2 cells over time and concentration: most effective FcIII-BCN-GN3 concentration in [7] worked out at 1 µM.
In [7], “FcIII-GN3 (oxidized cyclized form) (peptide)” registered an endocytosis of Alexa 488-labeled human IgG by HepG2 cells (flow cytometry, six hours): FcIII-GN3 concentration giving maximal uptake of 200 nM.
asialoorosomucoid (ligand): in data set [8], the percent decrease of ternary complex formation at 2.38 µM (0.1 mg/mL) ASOR is 70%. For the same molecule, the mean fluorescence of the HepG2 cell population (DNP-AF3-mediated α-DNP antibody endocytosis) in the presence of 2.38 µM (0.1 mg/mL) ASOR; approximately 1.31e6 without inhibitor (mean fluorescence) in data set [9] amounted to 466000. The IC50 in [10] is 17 nM.

B1: asialofetuin (ligand, UniProt P12763 19-359, looked up, species assumed)
Alpha-2-HS-glycoprotein: IPLDPVAGYKEPACDDPDTEQAALAAVDYINKHLPRGYKHTLNQIDSVKVWPRRPTGEVYDIEIDTLETTCHVLDPTPLANCSVRQQTQHAVEGDCDIHVLKQDGQFSVLFTKCDSSPDSAEDVRKLCPDCPLLAPLNDSRVVHAVEVALATFNAESNGSYLQLVEISRAQFVPLPVSVSVEFAVAATDCIAKEVVDPTKCNLLAEKQYGFCKGSVIQKALGGEDVRVTCTLFQTQPVIPQPQPDGAEAEAPSAVPDAAGPTPSAAGPPVASVVVGPSVVAVPLPLHRAHYDLRHTFSGVASVESSSGEAFHVGKTPIVGQPSIPGGPVRLCPGRIRYFKI
modifications: desialylated
In turn, B1 returned an IC50 in [10] of 65 nM. In other words, the double-digit nanomolar range.
